Our source for the IC50, Activity and inhibition values is ChEMBL document CHEMBL1152396, “Cardenolides from Pergularia tomentosa display cytotoxic activity resulting from their potent inhibition of Na+/K+-ATPase” (J Nat Prod, 2009).

Activity calls are given as the source filed them. The rule behind the calls is not given here.

Experiment [1] concerns A549. Kind of experiment: Antiproliferative activity against human A549 cells after 72 hrs by MTT assay. The format is functional, cell-based. Particulars: A549, 72 h.
The test system of experiment [2] is A549. Kind of experiment: Induction of human A549 cell growth delay assessed as morphological changes at 200 nM after 3 days by video microscopy. The class given is functional, cell-based.
Experiment [3] relates to MCF7. The experiment can be described thus: Antiproliferative activity against human MCF7 cells after 72 hrs by MTT assay. The class given is functional, cell-based. Particulars: MCF7, 72 h. (In general: Formazan colour is commonly taken as a measure of viable cells.)
Experiment [4] in a line: Inhibition of pig cerebral cortex Na+/K+-ATPase by colorimetric microplate-based assay. The format is tissue-based, Sus scrofa.
Experiment [5] deals with BXPC-3. Kind of experiment: Antiproliferative activity against human BxPC3 cells after 72 hrs by MTT assay. The class given is functional, cell-based. The conditions noted are these: BXPC-3, 72 h.
In experiment [6] the test system is A549. The experiment can be described thus: Induction of human A549 cell death assessed as morphological changes at 200 nM after 3 days by video microscopy. The format is functional, cell-based.
Experiment [7] in a line: Antiproliferative activity against human U373 cells after 72 hrs by MTT assay. The conditions noted are these: U373 MG. The format is functional, cell-based, U-373MG ATCC.
The subject of experiment [8] is LoVo. Kind of experiment: Antiproliferative activity against human LoVo cells after 72 hrs by MTT assay. The format is functional, cell-based.
Experiment [9] has as its system U-373MG ATCC. Kind of experiment: Induction of human U373 cell death assessed as morphological changes at 400 nM after 3 days by video microscopy. The class given is functional, cell-based.
Experiment [10] relates to U-373MG ATCC. The experiment can be described thus: Induction of human U373 cell growth delay assessed as morphological changes at 400 nM after 3 days by video microscopy. The format is functional, cell-based.
In experiment [11] the test system is PC-3. The experiment can be described thus: Antiproliferative activity against human PC3 cells after 72 hrs by MTT assay. The format is functional, cell-based. Particulars: PC-3, 72 h.
For experiment [12], the species on record is Sus scrofa. Kind of experiment: Inhibition of pig cerebral cortex Na+/K+ ATPase at 1 mM by colorimetric microplate-based assay. The class given is tissue-based.
Experiment [13] deals with A549. The experiment can be described thus: Induction of human A549 cell death assessed as morphological changes at 80 nM after 3 days by video microscopy. The class given is functional, cell-based.
Experiment [14] relates to A549. Kind of experiment: Induction of human A549 cell growth delay assessed as morphological changes at 80 nM after 3 days by video microscopy. The format is functional, cell-based.
The test system of experiment [15] is A549. Kind of experiment: Induction of human A549 cell growth delay assessed as morphological changes at 800 nM after 3 days by video microscopy. The format is functional, cell-based.
Experiment [16] has as its system U-373MG ATCC. Kind of experiment: Induction of human U373 cell death assessed as morphological changes at 3.4 uM after 3 days by video microscopy. The class given is functional, cell-based.
Experiment [17] deals with A549. The experiment can be described thus: Induction of human A549 cell death assessed as morphological changes at 800 nM after 3 days by video microscopy. The format is functional, cell-based.
Experiment [18] concerns U-373MG ATCC. The experiment can be described thus: Induction of human U373 cell growth delay assessed as morphological changes at 3.4 uM after 3 days by video microscopy. The class given is functional, cell-based.

In general, IC50 refers to the point on the concentration scale where inhibition reaches its midpoint. `C[C@@H]1C[C@@H](O[C@H]2O[C@H](CO)[C@@H](O)[C@H](O)[C@H]2O)[C@]2(O)O[C@@H]3C[C@@]4(C=O)[C@@H](CC[C@@H]5[C@@H]4CC[C@]4(C)[C@@H](C6=CC(=O)OC6)CC[C@]54O)C[C@H]3O[C@@H]2O1`: the half-maximal inhibitory concentration (IC50) in experiment [1] is 200 nM; in experiment [3], 300 nM; in experiment [4], 500 nM; in experiment [5], 500 nM; in experiment [7] it was 400 nM; in experiment [8] it was 400 nM. In experiment [11], this molecule had an IC50 of 200 nM. Also, the result in experiment [2], in experiment [6], in [9] and in [10] was Active.

Regarding `C[C@@H]1C[C@@H](O)[C@]2(O)O[C@@H]3C[C@@]4(C=O)[C@@H](CC[C@@H]5[C@@H]4CC[C@]4(C)[C@@H](C6=CC(=O)OC6)[C@H](O)C[C@]54O)C[C@H]3O[C@@H]2O1`, the IC50 is 400 nM in experiment [1]; 3800 nM in experiment [3]; 1700 nM in experiment [4]; 2300 nM in experiment [5]; 2600 nM in experiment [7]; 4400 nM in experiment [8]. In addition, the half-maximal inhibitory concentration (IC50) in experiment [11] turned out to be 1000 nM.

One may read the inhibition as the percentage by which the read-out fell short of the control. Low readings indicate a weak effect, high ones a strong effect. `C[C@@H]1O[C@@H](O[C@H]2C[C@@H](O)[C@]3(CO)[C@H]4[C@H](O)C[C@]5(C)[C@@H](C6=CC(=O)OC6)CC[C@]5(O)[C@@H]4CC[C@]3(O)C2)[C@H](O)[C@H](O)[C@H]1O` displayed an inhibition in [12] of 100%.

For the molecule `C[C@]12[C@H](O)C[C@H]3[C@@H](CC[C@H]4C[C@H]5O[C@@H]6O[C@H](CO)C[C@@H](O)[C@]6(O)O[C@@H]5C[C@@]43CO)[C@@]1(O)CC[C@@H]2C1=CC(=O)OC1` [GHALAKINOSIDE], the concentration for half-maximal inhibition (IC50) in experiment [1] was 80 nM; in experiment [3], 300 nM; in experiment [4], 300 nM; in experiment [5], 300 nM; in [7] it was 400 nM; in experiment [8], 300 nM. For the same molecule, it took 80 nM to reach half-maximal inhibition in experiment [11] (IC50). Moreover, the result in [13], in [9], in [10] and in experiment [14] was Active.

Regarding `C[C@]12CC[C@H]3[C@@H](CC[C@H]4C[C@H]5O[C@@H]6O[C@H](CO)C[C@@H](O)[C@]6(O)O[C@@H]5C[C@@]43CO)[C@@]1(O)CC[C@@H]2C1=CC(=O)OC1`, the half-maximal inhibitory concentration (IC50) in experiment [1] stood at 40 nM; in experiment [3], 400 nM; in experiment [4] it was 400 nM; in experiment [5], 300 nM; in experiment [7] it was 100 nM; in [8], 200 nM. For the same molecule, in experiment [11], inhibition was half-maximal at 40 nM (IC50).

Turning to `C[C@@H]1CC2(NC(=O)CS2)[C@]2(O)O[C@@H]3C[C@@]4(CO)[C@@H](CC[C@@H]5[C@@H]4CC[C@]4(C)[C@@H](C6=CC(=O)OC6)CC[C@]54O)C[C@H]3O[C@@H]2O1` (stereo not given in full), in experiment [1], the IC50 stood at 8 nM. This counts as single-digit nanomolar.

For the molecule `C[C@@H]1C[C@@H](O)[C@]2(O)O[C@@H]3C[C@@]4(C=O)[C@@H](CC[C@@H]5[C@@H]4CC[C@]4(C)[C@@H](C6=CC(=O)OC6)CC[C@]54O)C[C@H]3O[C@@H]2O1` [CALACTIN], the IC50 is 20 nM in [1]; 40 nM in experiment [3]; 400 nM in [4]; 80 nM in [5]; 200 nM in experiment [7]; 50 nM in experiment [8]. In [11], the IC50 stood at 20 nM.

`C[C@@H]1C[C@@H](O)[C@]2(O)O[C@@H]3C[C@@]4(CO)[C@@H](CC[C@@H]5[C@@H]4C[C@@H](O)[C@]4(C)[C@@H](C6=CC(=O)OC6)CC[C@]54O)C[C@H]3O[C@@H]2O1`: the half-inhibitory concentration (IC50) in [1] stood at 50 nM; in [3] it was 300 nM; in [4], 700 nM; in experiment [5], 300 nM; in experiment [7] it was 400 nM; in [8] it was 300 nM. In experiment [11], this molecule had an IC50 of 50 nM.

As for `CC(=O)O[C@@H]1C[C@]2(O)[C@@H]3CC[C@H]4C[C@H]5O[C@@H]6O[C@H](CO)C[C@@H](O)[C@]6(O)O[C@@H]5C[C@]4(C=O)[C@H]3CC[C@]2(C)[C@H]1C1=CC(=O)OC1`, the IC50 in experiment [1] stood at 800 nM; in [3], 4100 nM; in experiment [4], 1200 nM; in experiment [5] it was 4400 nM; in [7], 3400 nM; in experiment [8], 6400 nM. The molecule also yielded a half-inhibitory concentration (IC50) in experiment [11] of 1200 nM. The outcome in experiment [15], in experiment [16], in [17] and in [18] was Active.

For `C[C@]12CC[C@H]3[C@@H](CC[C@H]4C[C@H]5O[C@@H]6O[C@H](CO)C[C@@H](O)[C@]6(O)O[C@@H]5C[C@@]43C=O)[C@@]1(O)CC[C@@H]2C1=CC(=O)OC1`, the IC50 turned out to be 80 nM in [1]; 500 nM in experiment [3]; 500 nM in experiment [4]; 600 nM in experiment [5]; 400 nM in experiment [7]; 900 nM in experiment [8]. Moreover, the IC50 in [11] turned out to be 300 nM.
